Literature values, collected in US9272036B2, “Carbon dioxide, saline and additional active nasal delivery methods and treatments” (CLOVER HILL HEALTHCARE, INC., priority 2012, dated 2016).

System: subjects with SAR

O=C=O [CO(2), carbon dioxide]
histamine levels in ipsilateral nasal secretions (after pretreatment with CO(2), increased significantly with sham treatment): did not increase | sensation reported by subjects during exposure (during 20-second intranasal exposure): transient burning sensation | ipsilateral secretion weights (nasal allergen challenge 30 minutes after 20-second CO(2) exposure, compared with no treatment): numerically reduced | bilateral runny nose symptoms (nasal allergen challenge 30 minutes after 20-second CO(2) exposure, compared with no treatment, p=0.01): significant reduction | contralateral secretion weights (reflex secretory response, primary outcome) (nasal allergen challenge 30 minutes after 20-second CO(2) exposure, compared with no treatment, p=0.04): significant reduction | sneezes (nasal allergen challenge (grass or ragweed) 30 minutes after 20-second CO(2) exposure, compared with no treatment, p=0.05): significant reduction | acute response to allergen challenge (overall) (treatment with nasal CO(2)): partial reduction
